Measured values reported in PMC8308777, “Small Molecule–Peptide Conjugates as Dimerization Inhibitors of Leishmania infantum Trypanothione Disulfide Reductase” (Pharmaceuticals, 2021).
Where two headings read alike, the source gives them in different places.

Key:
[1] = target: T1, Leishmania infantum trypanothione disulfide reductase (LiTryR) (Leishmania infantum, UniProt A4HSF7); experiment: LiTryR oxidoreductase activity assay (DTNB-coupled); type: biochemical; details: no preincubation; for IC50: modified DTNB-coupled assay, 26 °C, HEPES pH 7.5, HIS-LiTryR 7 nM, TS2 1 μM, NADPH 150 μM, inhibitor 0.1-25 μM, IC50 ± SE, three independent experiments in triplicate, read-out: IC50act, LiTryR oxidoreductase activity
T1 construct: HIS; made in house; host or cells: E. coli BL21 (DE3) Rossetta 2
T1 sequence (A4HSF7 entry or part of it): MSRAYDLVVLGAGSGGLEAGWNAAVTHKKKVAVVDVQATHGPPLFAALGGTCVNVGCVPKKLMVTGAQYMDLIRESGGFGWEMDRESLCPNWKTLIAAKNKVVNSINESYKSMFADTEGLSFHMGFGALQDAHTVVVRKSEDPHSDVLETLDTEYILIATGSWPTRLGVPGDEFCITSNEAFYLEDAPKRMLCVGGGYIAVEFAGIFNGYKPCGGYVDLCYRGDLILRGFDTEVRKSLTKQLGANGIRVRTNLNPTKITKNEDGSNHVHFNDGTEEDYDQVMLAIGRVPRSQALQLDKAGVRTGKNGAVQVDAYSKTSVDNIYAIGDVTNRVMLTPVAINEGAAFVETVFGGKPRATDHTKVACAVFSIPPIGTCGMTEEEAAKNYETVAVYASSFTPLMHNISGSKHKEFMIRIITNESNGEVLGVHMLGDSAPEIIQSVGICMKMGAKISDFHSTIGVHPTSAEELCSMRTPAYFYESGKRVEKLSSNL
Description: LiTryR oxidoreductase activity was assessed spectrophotometrically using a modified version of the DTNB-coupled assay, described by Hamilton et al.. Briefly, reactions were performed at 26 °C in 250 μL of HEPES buffer (pH 7.5, 40 mM) containing EDTA (1 mM), NADP^+ (30 μM), DTNB (25 μM), TS2 (1 μM), NADPH (150 μM), glycerol (0.02%), DMSO (1.75%), and recombinant HIS-LiTryR (7 nM). […] Reactions were started by addition of a mixture (50 μL/well) of the substrates (NADPH and TS2).
LiTryR oxidoreductase activity was monitored at 26 °C by an increase in absorbance at 412 nm in an EnSpire Multimode Plate Reader (PerkinElmer, Waltham, MA, USA). In this DTNB-coupled assay, one molecule of T(SH)2 reduces one molecule of DTNB, producing two TNB molecules. The TNB concentration was obtained by multiplying the absorbance values by 100 (50 μM TNB generates 0.5 arbitrary units of absorbance at 412 nm).
For IC50 determinations, the initial velocities were calculated from the slope of the initial linear part of the reaction curves. The initial velocities of the reaction progress curves in the presence of inhibitor (concentrations ranging from 0.1 to 25 μM) were normalized as a percentage with respect to the initial velocity in the presence of the inhibitor vehicle (DMSO). IC50 values were obtained by fitting these percentages to a nonlinear regression model with GraFit 6 software (Erithacus, Horley, Surrey, U.K.). All the assays were performed in triplicate.

[2] = target: T2, HIS-FLAG-tagged LiTryR dimer (Leishmania infantum, UniProt A4HSF7); experiment: LiTryR dimer quantitation assay (ELISA); type: biochemical; details: 16 h at 37 °C; for IC50: HIS-FLAG-LiTryR 400 nM, Tris pH 8.0, 300 mM NaCl, compounds 25 to 3.1 μM, IC50 ± SE, three independent experiments in triplicate, read-out: IC50dim, LiTryR dimer quantitation
T2 construct: made in house; host or cells: E. coli BL21 (DE3) Rossetta 2
T2 sequence (A4HSF7 entry or part of it): as above
Description: The relative amount of the LiTryR dimeric form in the presence of the SMPCs was assessed using an enzyme-linked immunosorbent assay (ELISA), developed in our laboratory. Briefly, HIS-FLAG-tagged LiTryR (400 nM) was incubated in dimerization buffer (1 mL of 50 mM Tris pH 8.0 and 300 mM NaCl) for 16 h at 37 °C with vigorous shaking and in a humid atmosphere in the presence of the different compounds ranging from 25 to 3.1 μM. Following a 15 min centrifugation at 18,000× g and room temperature, the supernatants were added to the α-FLAG-coated plates (200 μL/well) and incubated for 30 min at 37 °C with vigorous shaking in a humid atmosphere. The plates were washed five times with TTBS buffer (2 mM Tris pH 7.6, 138 mM NaCl, and 0.1% Tween-20) and incubated with diluted monoclonal α-HIS horseradish peroxidase (HRP)-conjugated antibody (200 μL/well, 1:50,000, Abcam, Cambridge, UK) in fatty acid- and essentially globulin-free bovine serum albumin (5%) prepared in TTBS buffer for 1 h at room temperature. The plates were washed again five times and the o-phenylenediamine dihydrochloride substrate, prepared according to the manufacturer’s instructions, was added (100 μL/well). The enzymatic reactions were stopped after 5 min by addition of […] (100 μL/well) and the absorbances were measured at 490 nm in an EnSpire Multimode Plate Reader (PerkinElmer, Waltham, MA, USA).
For IC50 determinations, the absorbance values in the presence of different concentrations of inhibitor were normalized as a percentage with respect to the absorbance value in the presence of DMSO. The IC50 values were obtained by fitting these percentages to a nonlinear regression model with GraFit 6 software (Erithacus, Horley, Surrey, U.K.). The assays were carried out in triplicate and repeated three times.

[3] = qualitative, attributed to increased hydrophobicity of the adamantyl substituent

Row | SMILES | IC50 ([1]; SEM) [µM] | IC50 ([2]; SEM) [µM] | also measured
1 | CC[C@H](C)[C@H](NC(=O)CNC(=O)[C@@H](NC(=O)[C@H](CO)NC(=O)[C@H](CCC(N)=O)NC(=O)[C@@H](NC(=O)[C@@H](NC(=O)[C@H](CCCCN)NC(=O)[C@@H]1CCCN1C(C)=O)[C@@H](C)CC)[C@@H](C)CC)C(C)C)C(N)=O [TRL38, Ac-PKIIQSVGI-NH2, reference compound] | – | – | LiTryR oxidoreductase activity at 25 μM (%) ([1]; at 25 μM, reliable IC50 could not be determined): 65.1%; IC50 [1]: > 25 µM; IC50 [2]: > 25 µM; LiTryR dimer at 25 μM (%) [2]: 61.4%
2 | CC[C@H](C)[C@H](NC(=O)CNC(=O)[C@@H](NC(=O)[C@H](CO)NC(=O)[C@H](CCC(N)=O)NC(=O)[C@@H](NC(=O)[C@@H](NC(=O)[C@H](CCCCN)NC(=O)[C@@H]1CCCN1C(=O)COCCOCCNC(=O)CC12CC3CC(CC(C3)C1)C2)[C@@H](C)CC)[C@@H](C)CC)C(C)C)C(N)=O [1f, Adamantyl-CH2-CO-NH-(CH2)2-O-(CH2)2-O-CH2-CO-NH-PKIIQSVGI-NH2] | 7.6 ± 1.2 | 8.1 ± 0.2 | solubility [3]: decrease in solubility
3 | CC[C@H](C)[C@H](NC(=O)CNC(=O)[C@@H](NC(=O)[C@H](CO)NC(=O)[C@H](CCC(N)=O)NC(=O)[C@@H](NC(=O)[C@@H](NC(=O)[C@H](CCCCN)NC(=O)[C@@H]1CCCN1C(=O)COCCOCCNC(=O)Cc1ccc(-c2ccccc2)cc1)[C@@H](C)CC)[C@@H](C)CC)C(C)C)C(N)=O [1c, Biphenyl-CH2-CO-NH-(CH2)2-O-(CH2)2-O-CH2-CO-NH-PKIIQSVGI-NH2] | 16.6 ± 3.8 | 22.9 ± 1.4 | –
4 | CC[C@H](C)[C@H](NC(=O)CNC(=O)[C@@H](NC(=O)[C@H](CO)NC(=O)[C@H](CCC(N)=O)NC(=O)[C@@H](NC(=O)[C@@H](NC(=O)[C@H](CCCCN)NC(=O)[C@@H]1CCCN1C(=O)Cc1ccccc1)[C@@H](C)CC)[C@@H](C)CC)C(C)C)C(N)=O [4a, Ph-CH2-CO-NH-PKIIQSVGI-NH2] | 10.3 ± 1.8 | 11.4 ± 0.1 | –
5 | CC[C@H](C)[C@H](NC(=O)CNC(=O)[C@@H](NC(=O)[C@H](CO)NC(=O)[C@H](CCC(N)=O)NC(=O)[C@@H](NC(=O)[C@@H](NC(=O)[C@H](CCCCN)NC(=O)[C@@H]1CCCN1C(=O)COCCOCC[N+](C)(Cc1ccccc1)Cc1ccccc1)[C@@H](C)CC)[C@@H](C)CC)C(C)C)C(N)=O [compound 10, (Ph-CH2)2(Me)N^+-(CH2)2-O-(CH2)2-O-CH2-CO-NH-PKIIQSVGI-NH2 I^−] | 9.2 ± 1.1 | 21.2 ± 3.5 | –
6 | CC[C@H](C)[C@H](NC(=O)CNC(=O)[C@@H](NC(=O)[C@H](CO)NC(=O)[C@H](CCC(N)=O)NC(=O)[C@@H](NC(=O)[C@@H](NC(=O)[C@H](CCCCN)NC(=O)[C@@H]1CCCN1C(=O)COCCOCC[N+](C)(C)Cc1ccccc1)[C@@H](C)CC)[C@@H](C)CC)C(C)C)C(N)=O [compound 9, (Ph-CH2)(Me)2N^+-(CH2)2-O-(CH2)2-O-CH2-CO-NH-PKIIQSVGI-NH2 I^−] | 18.3 ± 2.6 | – | IC50 [2]: > 25 µM; LiTryR dimer at 25 μM (%) [2]: 53.3%
7 | CC[C@H](C)[C@H](NC(=O)CNC(=O)[C@@H](NC(=O)[C@H](CO)NC(=O)[C@H](CCC(N)=O)NC(=O)[C@@H](NC(=O)[C@@H](NC(=O)[C@H](CCCCN)NC(=O)[C@@H]1CCCN1C(=O)CN1C(=O)c2cccc3cccc1c23)[C@@H](C)CC)[C@@H](C)CC)C(C)C)C(N)=O [4d] | 8 ± 1.5 | 7.1 ± 0.2 | –
8 | CC[C@H](C)[C@H](NC(=O)CNC(=O)[C@@H](NC(=O)[C@H](CO)NC(=O)[C@H](CCC(N)=O)NC(=O)[C@@H](NC(=O)[C@@H](NC(=O)[C@H](CCCCN)NC(=O)[C@@H]1CCCN1C(=O)COCCOCCNC(=O)Cc1ccccc1)[C@@H](C)CC)[C@@H](C)CC)C(C)C)C(N)=O [1a, Ph-CH2-CO-NH-(CH2)2-O-(CH2)2-O-CH2-CO-NH-PKIIQSVGI-NH2] | 22 ± 0.7 | 9.4 ± 0.1 | –
9 | CC[C@H](C)[C@H](NC(=O)CNC(=O)[C@@H](NC(=O)[C@H](CO)NC(=O)[C@H](CCC(N)=O)NC(=O)[C@@H](NC(=O)[C@@H](NC(=O)[C@H](CCCCN)NC(=O)[C@@H]1CCCN1C(=O)COCCOCCNC(=O)CN1C(=O)c2cccc3cccc1c23)[C@@H](C)CC)[C@@H](C)CC)C(C)C)C(N)=O [1d] | 6.7 ± 0.4 | 7.8 ± 0.1 | –
10 | CC[C@H](C)[C@H](NC(=O)CNC(=O)[C@@H](NC(=O)[C@H](CO)NC(=O)[C@H](CCC(N)=O)NC(=O)[C@@H](NC(=O)[C@@H](NC(=O)[C@H](CCCCN)NC(=O)[C@@H]1CCCN1C(=O)COCCOCCN(Cc1ccccc1)Cc1ccccc1)[C@@H](C)CC)[C@@H](C)CC)C(C)C)C(N)=O [compound 8, (Ph-CH2)2N-(CH2)2-O-(CH2)2-O-CH2-CO-NH-PKIIQSVGI-NH2] | 9.8 ± 2.3 | 7.1 ± 0.5 | –
11 | CC[C@H](C)[C@H](NC(=O)CNC(=O)[C@@H](NC(=O)[C@H](CO)NC(=O)[C@H](CCC(N)=O)NC(=O)[C@@H](NC(=O)[C@@H](NC(=O)[C@H](CCCCN)NC(=O)[C@@H]1CCCN1C(=O)COCCOCCNC(=O)Cc1ccc2ccccc2c1)[C@@H](C)CC)[C@@H](C)CC)C(C)C)C(N)=O [1b, Naphthyl-CH2-CO-NH-(CH2)2-O-(CH2)2-O-CH2-CO-NH-PKIIQSVGI-NH2] | 18.2 ± 1 | 8.7 ± 0.5 | –
12 | CC[C@H](C)[C@H](NC(=O)CNC(=O)[C@@H](NC(=O)[C@H](CO)NC(=O)[C@H](CCC(N)=O)NC(=O)[C@@H](NC(=O)[C@@H](NC(=O)[C@H](CCCCN)NC(=O)[C@@H]1CCCN1C(=O)COCCNC(=O)Cc1ccccc1)[C@@H](C)CC)[C@@H](C)CC)C(C)C)C(N)=O [2a, Ph-CH2-CO-NH-(CH2)2-O-CH2-CO-NH-PKIIQSVGI-NH2] | 22.3 ± 1.5 | 15 ± 0.6 | –
13 | CC[C@H](C)[C@H](NC(=O)CNC(=O)[C@@H](NC(=O)[C@H](CO)NC(=O)[C@H](CCC(N)=O)NC(=O)[C@@H](NC(=O)[C@@H](NC(=O)[C@H](CCCCN)NC(=O)[C@@H]1CCCN1C(=O)COCCNC(=O)CN1C(=O)c2cccc3cccc1c23)[C@@H](C)CC)[C@@H](C)CC)C(C)C)C(N)=O [2d] | 6.9 ± 1.9 | 7.1 ± 0.1 | –
14 | CC[C@H](C)[C@H](NC(=O)CNC(=O)[C@@H](NC(=O)[C@H](CO)NC(=O)[C@H](CCC(N)=O)NC(=O)[C@@H](NC(=O)[C@@H](NC(=O)[C@H](CCCCN)NC(=O)[C@@H]1CCCN1C(=O)COCCOCCNCc1ccccc1)[C@@H](C)CC)[C@@H](C)CC)C(C)C)C(N)=O [compound 7, Ph-CH2-NH-(CH2)2-O-(CH2)2-O-CH2-CO-NH-PKIIQSVGI-NH2] | 8.3 ± 1.4 | 12.6 ± 0.6 | –
15 | CC[C@H](C)[C@H](NC(=O)CNC(=O)[C@@H](NC(=O)[C@H](CO)NC(=O)[C@H](CCC(N)=O)NC(=O)[C@@H](NC(=O)[C@@H](NC(=O)[C@H](CCCCN)NC(=O)[C@@H]1CCCN1C(=O)CCNC(=O)Cc1ccccc1)[C@@H](C)CC)[C@@H](C)CC)C(C)C)C(N)=O [3a, Ph-CH2-CO-NH-(CH2)2-CO-NH-PKIIQSVGI-NH2] | 20.6 ± 1.6 | 12.7 ± 1.1 | –
